Series [1] has as its system IgM production of mouse spleen lymphocytes. In words: Suppressive effect on antibody production of mouse spleen lymphocytes: IgM. The class given is cell-based, BALB/c (nu/nu) mice. The note with it: Lymphocyte, 240 h, LPS + IL-4, 10 days. How it is done:
(§1) Experiment 6 Suppressive Effect on Antibody Production of Mouse Spleen Lymphocytes 1. Experimental Method 1) Animals
(§2) BALB/c (nu/nu) mice were bought from Japan SLC, Inc. (Shizuoka) and 7 weeks old-male mice were used.
(§3) RPMI medium (Nissui Pharmaceutical Co., Ltd.) containing 10% fetal bovine serum (HyClone Lab.) inactivated at 56° C. for 30 minutes, penicillin (100 units/ml) and streptomycin (100 μg/ml) (GIBCO) was used for experiments.
(§4) Each of the compounds was dissolved in dimethylsulfoxide (Nakaraitesk) at […] and diluted with the medium to adjust a final concentration to 0.1 μg/ml −10 μg/ml.
(§5) 4) Mouse Spleen Lymphocytes […]
(§6) In 96-well cultivating plate (Sumitomo Bakelite Company Limited) mouse spleen lymphocytes were inoculated 2×10^5 cells per well. […] After the cultivation for 10 days, the amount of the antibody in a supernatant was quantified by ELISA method.
(§7) 7) Quantification of the IgG1, IgG2a and IgM Antibodies
(§8) In 96-well plate 50 μl of 10 μg/ml Goat Anti-Mouse Ig (IgM+G+A, H+ L) (Southern Biotechnology, Birmingham) was added and the plate was coated at 4° C. overnight. […] After washing three times with PBST, 100 μl of culture supernatant which was diluted with PBS or 100 μl of an antibody standard solution (Mouse IgG1 standard, Mouse IgG2a standard, Mouse IgM standard, BETHYL Laboratories) of a pre-determined concentration was added and incubated for 1 hour. […]

For series [2], the system named is IgG1 production of mouse spleen lymphocytes. In words: Suppressive effect on antibody production of mouse spleen lymphocytes: IgG1. Format: cell-based, BALB/c (nu/nu) mice. The note with it: Lymphocyte, 240 h, LPS + IL-4, 10 days. How it is done: as §1, §2, §3, §4, §5, §6, §7, §8
The subject of series [3] is inflammatory cells in BAL solution of OVA-sensitized mice. The series can be described thus: Suppressive effect on bronchial inflammatory cell infiltration by inhalation of antigen (BAL cell counts). Format: in vivo, BALB/c mice. Particulars: 40 mg/kg orally for 9 days, BAL 48 hours after challenge, FIG. 4. The protocol:
Experiment 7 Suppressive Effect on Bronchial Inflammatory Cell Infiltration by Inhalation of Antigen • 1. Experimental Method • 1) Animals
BALB/c mice bought from Japan SLC, Inc. (Shizuoka) (female, 8-11 weeks old) were used for experiments.
2) Sensitizing and Challenge of Antigen
For immunizing, 0.2 ml of a suspension of 2 μg of ovalbumin (OVA; Grade V, SIGMA) and 2 mg of aluminium hydroxide gel in physiological saline was intraperitoneally injected. After 2 weeks, 0.2 ml of a solution of 2 μg of OVA in physiological saline was intraperitoneally injected for a booster. […]
After calculation of the total cell number by coloring of a part of BAL solution with Türk solution, cells in BAL solution were put on a slide glass with cytospin (SHANDON) for May-Grünwald-Giemsa (MERCK) staining. Under a microscope, 500 cells were classified to a macrophage, an eosinophil, a neutrophil and a lymphocyte and a proportion of each type of the cells was calculated. The number of each type of the cells was calculated by a multiplication of its proportion and the total cell number.

For series [4], the system named is BGG-specific IgE in a serum. In words: Suppressive effect on the antibody production against bovine γ globulin (BGG), sandwich ELISA. The note with it: 50 mg/kg p.o. every day, serum after 21 days. Format: in vivo, BALB/c mice. How it is done: Experiment 3 Suppressive Effect on the Antibody Production Against Bovine γ Globulin (BGG)
On an immunizing day and 7 days after, 50 μg of BGG was subcutaneously inoculated to backs of BALB/c mice (male, 6-8 weeks old) for inducing an immune reaction. After the compound of the present invention was dissolved or suspended in N, N-dimethylacetoamide, the mixture was diluted with miglyol 812 neutral oil. A proper volume of the compound was orally administered (p.o.) to mice every day from the next day of the immunizing. A two hundredth weight to body weight of miglyol was administered to mice in a control group. After 21 days, blood was drawn from each mouse and a serum was separated. BGG-specific IgE in a serum was measured by the sandwich ELISA method using a BGG-coating plate. The suppressive rate of IgE production was calculated from the dilution rate of the serum which has the same absorption intensity as that of the control group for judging the effect of the compound of the present invention.
For orientation: ELISA stands for enzyme-linked immunosorbent assay.

The values that follow come from US7101915B1, “P-terphenyl compounds” (Shionogi & Co., Ltd., priority 1996, dated 2006).

Consider `Cc1cc(-c2ccc(OCC=C(Cl)Cl)c(F)c2)c(C)cc1-c1ccc(O)cc1` [Compound I-963], for which the melting point was 93 to 94 °C. In addition, in series [1], the IC50 came out at 3.5 µg/mL. Further, the IC50 in series [2] stood at 0.51 µg/mL. Also, in series [3], the “increasing number of eosinophils by the challenge of antigen” value is listed as “significantly suppresses” and the “increasing number of neutrophils by the challenge of antigen” value is on record as “significantly suppresses”. Also, the “Suppressive rate of antigen-specific IgE” value in series [4] is listed as above 99%.

A word on the IC50: it is the midpoint of a concentration-inhibition curve. By melting point is commonly meant the temperature, or range, at which the solid turns liquid.
